“Also recorded” adds a separate entry of the source.
How the values were obtained:
[1] = test system: H7N7 A/Equine/London/1416/73 influenza virus strain; design: species or system mice; conditions: mouse, in vivo
[2] = test system: influenza virus strain PR8; format: cell-based
[3] = test system: A549 cell

SMILES: Cc1ccccc1-n1c(Cn2cnc3c(N)ncnc32)nc2cccc(C)c2c1=O [IC87114]
- survival after lethal challenge [1]: increased survival; also recorded: protects mice lethally challenged with virulent influenza virus
- influenza virus replication [2]: inhibits influenza virus replication
- viral mRNA production reduced compared to untreated cells [2]: ~25 fold
- survival of A549 cell [3]: did not affect the survival

Source: patent publication US20130209487A1, “Treatment of Avian Species with Inhibitors of P110 Delta Signaling” (priority 2010, published 2013)
